In ChEMBL document CHEMBL4706515, “Discovery of new [1,2,4] Triazolo[1,5-a]Pyrimidine derivatives that Kill gastric cancer cells via the mitochondria pathway” (Eur J Med Chem, 2020):
The source made the active and inactive calls. The calls are words filed in the database; no cut-off is given here.

Key:
[1] = tested on: SGC-7901; test: Induction of apoptosis in human SGC-7901 cells assessed as late apoptotic cells at 10 uM measure after 24 hrs by Annexin-PI staining based Flowcytometry method (reference value: 1.29%); assay type: functional
[2] = tested on: MGC-803; test: Cell cycle arrest in human MGC-803 cells assessed as accumulation of cells in G2/M phase at 10 uM measured after 24 hrs by PI staining based flow cytometry; assay type: functional
[3] = tested on: MGC-803; test: Cytotoxicity against human MGC-803 cells assessed as inhibition of cell viability incubated for 1 hr with Z-LEHD-FMK followed by addition of compound; assay type: functional, cell-based
[4] = tested on: MGC-803; test: Induction of apoptosis in human MGC-803 cells assessed as early apoptotic cells at 2.5 uM measure after 24 hrs by Annexin-PI staining based Flowcytometry method (reference value: 9.8%); assay type: functional
[5] = tested on: SGC-7901; test: Induction of apoptosis in human SGC-7901 cells assessed as necrotic cells at 1.25 uM measure after 24 hrs by Annexin-PI staining based Flowcytometry method (reference value: 1.16%); assay type: functional
[6] = tested on: MGC-803; test: Antiproliferative activity against human MGC-803 cells assessed as inhibition of cell growth incubated with compound for 1 to 24 hrs and measured 72 hrs after replacement of media by SRB assay; assay type: functional, cell-based; details: time 1-24 hrs
[7] = tested on: MGC-803; test: Induction of apoptosis in human MGC-803 cells assessed as increase in ROS production preincubated for 1 hr with NAC followed by compound addition at 2.5 uM measured after 24 hrs by DCHF-DA staining based Flowcytometry method; assay type: functional, cell-based
[8] = tested on: MGC-803; test: Induction of apoptosis in human MGC-803 cells assessed as decrease in accumulation of cleaved PARP preincubated with Chloroquine measured after 24 hrs by western blot assay; assay type: functional, cell-based
[9] = tested on: SGC-7901; test: Induction of apoptosis in human SGC-7901 cells assessed as necrotic cells at 2.5 uM measure after 24 hrs by Annexin-PI staining based Flowcytometry method (reference value: 1.16%); assay type: functional
[10] = tested on: A549; test: Antiproliferative activity against human A549 cells assessed as inhibition of cell growth at measured after 72 hrs by SRB assay; assay type: functional

In the case of `Cc1cc(Nc2ccc(C(=O)/C=C/c3cccc(Br)n3)cc2)n2nc(SCc3nc4ccccc4[nH]3)nc2n1`, the Activity [1] is reported as 62.8%, the Activity [2] is reported as “Active” and the inhibition [3] is reported as “inactive”. The Activity [4] was 7.11%, the Activity [5] was 2.24% and the inhibition [6] was “Active”. For the same compound, the Activity [7] was “inactive”, the Activity [8] was “inactive” and the Activity [9] was 1.15%. For the same compound, the GI50 [10] was > 10 µM.
